The text below walks through data of patent publication US9255100B2 (BAYER INTELLECTUAL PROPERTY GMBH, priority 2010, dated 2016).

In this experiment the target is T1, N-terminally GST-tagged human full length recombinant Mps-1 kinase (Homo sapiens, UniProt P33981).
T1 construct: N-terminally GST-tagged human full length recombinant Mps-1 kinase; purchased Invitrogen, Karslruhe, Germany PV4071
T1 sequence (P33981 1-857): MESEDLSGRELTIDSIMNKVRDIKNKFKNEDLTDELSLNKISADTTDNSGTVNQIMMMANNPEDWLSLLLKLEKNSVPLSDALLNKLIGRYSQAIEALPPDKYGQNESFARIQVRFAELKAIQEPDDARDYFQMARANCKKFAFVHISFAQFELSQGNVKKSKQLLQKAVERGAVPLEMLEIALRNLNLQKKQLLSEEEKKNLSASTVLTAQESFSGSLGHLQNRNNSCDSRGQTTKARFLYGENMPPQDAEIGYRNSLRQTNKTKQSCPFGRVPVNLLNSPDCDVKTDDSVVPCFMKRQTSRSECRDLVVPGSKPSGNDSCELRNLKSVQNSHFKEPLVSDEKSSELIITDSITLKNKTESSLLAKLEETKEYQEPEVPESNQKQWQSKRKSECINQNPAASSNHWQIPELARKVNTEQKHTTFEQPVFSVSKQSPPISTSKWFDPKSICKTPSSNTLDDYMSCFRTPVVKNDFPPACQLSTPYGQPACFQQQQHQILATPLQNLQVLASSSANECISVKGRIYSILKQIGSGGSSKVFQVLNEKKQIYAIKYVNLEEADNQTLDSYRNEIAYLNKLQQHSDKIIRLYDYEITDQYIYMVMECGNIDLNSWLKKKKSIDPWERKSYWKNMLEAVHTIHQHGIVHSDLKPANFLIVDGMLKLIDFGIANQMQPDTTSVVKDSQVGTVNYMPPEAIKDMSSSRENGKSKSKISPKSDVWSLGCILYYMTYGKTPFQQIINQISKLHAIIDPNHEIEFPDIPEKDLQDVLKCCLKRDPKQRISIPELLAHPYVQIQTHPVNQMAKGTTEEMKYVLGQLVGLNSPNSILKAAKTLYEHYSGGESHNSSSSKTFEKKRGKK
Kind of experiment: Mps-1 kinase assay (TR-FRET). In kind it is biochemical. The note with it: Mps1 IC50 [nM], 10 μM ATP, 1 μM peptide substrate, 60 min at 22° C. An outline of the steps:
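GST-Mps-1 (full length, N-term tag) ~1 nM final, linear-range adjusted per lot; biotinylated peptide substrate. Detection: Eu-anti-pSer/Thr donor → SA-XLent acceptor TR-FRET, 1 h, 22° C. Inhibition of kinase activity.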
For orientation: In TR-FRET formats the signal depends on donor and acceptor labels being close together.
The IC50 is the concentration that gives 50% inhibition. Turning to `Cc1cc(-c2cnc3c(NCCC(F)(F)F)cc(-c4ccncc4)nn23)ccc1C(=O)NC1CC1` [Example 228, N-cyclopropyl-2-methyl-4-{6-(pyridin-4-yl)-8-[(3,3,3-trifluoropropyl)amino]imidazo[1,2-b]pyridazin-3-yl}benzamide], the IC50 came out at 0.6 nM.
`COC(C)(C)CNc1cc(-c2ccncc2)nn2c(-c3ccc(C(=O)NC4CC4)c(C)c3)cnc12` [Example 17, N-cyclopropyl-4-{8-[(2-methoxy-2-methylpropyl)amino]-6-(pyridin-4-yl)imidazo[1,2-b]pyridazin-3-yl}-2-methylbenzamide]: the IC50 stood at 3.2 nM.
For `Cc1cc(-c2cnc3c(NCCC(F)(F)F)cc(Sc4cc(F)cc(F)c4)nn23)ccc1C(=O)NC1CC1` [Example 251, N-cyclopropyl-4-{6-[(3,5-difluorophenyl)sulfanyl]-8-[(3,3,3-trifluoropropyl)amino]imidazo[1,2-b]pyridazin-3-yl}-2-methylbenzamide], the IC50 was found to be 0.2 nM.
Turning to `CCNC(=O)c1ccc(-c2cnc3c(NCC4CCOCC4)cc(Oc4ccc(F)c(F)c4)nn23)cc1C` [Example 594, 4-{6-(3,4-difluorophenoxy)-8-[(tetrahydro-2H-pyran-4-ylmethyl)amino]imidazo[1,2-b]pyridazin-3-yl}-N-ethyl-2-methylbenzamide], the IC50 is below 10 nM.
Take `Cc1cc(-c2cnc3c(NCC(C)(C)O)cc(Nc4cc(F)cc(F)c4)nn23)ccc1C(=O)NC1CC1` [Example 351, N-cyclopropyl-4-{6-[(3,5-difluorophenyl)amino]-8-[(2-hydroxy-2-methylpropyl)amino]imidazo[1,2-b]pyridazin-3-yl}-2-methylbenzamide]: the IC50 was 1 nM.
On to `CNC(=O)c1ccc(-c2cnc3c(NCC(F)F)cc(Oc4ccc(OC)cc4F)nn23)cc1C` [Example 580, 4-{8-[(2,2-difluoroethyl)amino]-6-(2-fluoro-4-meth-oxyphenoxy)imidazo[1,2-b]pyridazin-3-yl}-N,2-dimethylbenzamide], for which the IC50 was below 1 nM.
Turning to `Cc1cc(-c2cnc3c(NCCC(F)(F)F)cc(Oc4cccc(F)c4N)nn23)ccc1C(=O)NC1CC1` [Example 477, 4-{6-(2-amino-3-fluoro-phenoxy)-8-[(3,3,3-tri-fluoropropyl)amino]imidazo[1,2-b]pyridazin-3-yl}-N-cyclopropyl-2-methylbenzamide], the IC50 came to 0.3 nM.
Then `Cc1cc(-c2cnc3c(NCC(C)C)cc(C(=O)NCCO)nn23)ccc1C(=O)NC1CC1` [Example 199, 3-[4-(Cyclopropylcarbamoyl)-3-methylphenyl]-N-(2-hydroxyethyl)-8-[(2-methylpropyl)amino]imidazo[1,2-b]pyridazine-6-carboxamide], with 6.9 nM; and `Cc1cc(-c2cnc3c(NCC(C)(C)O)cc(Oc4ccc(N5CCN(C(=O)OC(C)(C)C)CC5)cc4)nn23)ccc1C(=O)NC1CC1` [Example 322, tert-butyl 4-[4-({3-[4-(cyclopropyl-carbamoyl)-3-methyl-phenyl]-8-[(2-hydroxy-2-methylpropyl)amino]imidazo[1,2-b]pyridazin-6-yl}oxy)phenyl]piperazine-1-carboxylate], with 70.6 nM; and `Cc1cc(-c2cnc3c(NCC(C)(C)O)cc(SC4CCOCC4)nn23)ccc1C(=O)NC1CC1` [Example 335, N-cyclopropyl-4-{8-[(2-hydroxy-2-methylpropyl)amino]-6-(tetrahydro-2H-pyran-4-ylsulfanyl)imidazo[1,2-b]pyridazin-3-yl}-2-methylbenzamide], with 3.6 nM.
As for `Cc1cc(-c2cnc3c(NCC(C)(C)O)cc(-c4cccn4C)nn23)ccc1C(=O)NC1CC1` [Example 161, N-cyclopropyl-4-{8-[(2-hydroxy-2-methylpropyl)amino]-6-(1-methyl-1H-pyrrol-2-yl)imidazo[1,2-b]pyridazin-3-yl}-2-methylbenzamide], the IC50 is 6.2 nM.
Turning to `Cc1ccc(F)c(Oc2cc(NCCC(F)(F)F)c3ncc(-c4ccc(C(=O)NC5CC5)c(C)c4)n3n2)c1` [Example 259, N-cyclopropyl-4-{6-(2-fluoro-5-methylphenoxy)-8-[(3,3,3-trifluoropropyl)amino]imidazo[1,2-b]pyridazin-3-yl}-2-methylbenzamide], the IC50 came to 0.3 nM.
Next, `Cc1cc(-c2cnc3c(NCC4CCCCO4)cc(-c4ccncc4)nn23)ccc1C(=O)NC1CC1` (racemic) [Example 37, (RS)—N-cyclopropyl-2-methyl-4-{6-(pyridin-4-yl)-8-[(tetrahydro-2H-pyran-2-ylmethyl)amino]imidazo[1,2-b]pyridazin-3-yl}benzamide]: below 1 nM.
In the case of `COc1cc(C(=O)NC2CC2)ccc1-c1cnc2c(NCCC(F)(F)F)cc(-c3ccnn3C)nn12` [Example 53, N-cyclopropyl-3-methoxy-4-{6-(1-methyl-1H-pyrazol-5-yl)-8-[(3,3,3-trifluoropropyl)amino]imidazo[1,2-b]pyridazin-3-yl}benzamide], the IC50 was found to be 7.1 nM.
As to `Cc1cc(-c2cnc3c(NCCC(F)(F)F)cc(Sc4nncn4C)nn23)ccc1C(=O)NC1CC1` [Example 419, N-cyclopropyl-2-methyl-4-{6-[(4-methyl-4H-1,2,4-triazol-3-yl)sulfanyl]-8-[(3,3,3-trifluoropropyl)amino]imidazo[1,2-b]pyridazin-3-yl}benzamide], the IC50 worked out at 3.5 nM.
For the compound `Cc1cc(-c2cnc3c(NCC4(C)CCCO4)cc(-c4ccncc4)nn23)ccc1C(=O)NC1CC1` (racemic) [Example 30, (RS)—N-cyclopropyl-2-methyl-4-[8-{[(2-methyltetrahydrofuran-2-yl)methyl]amino}-6-(pyridin-4-yl)imidazo[1,2-b]pyridazin-3-yl]benzamide], the IC50 stood at 2.1 nM.
`CNC(=O)c1ccc(-c2cnc3c(NCC4CCOCC4)cc(Oc4ccc(F)c(F)c4)nn23)cc1C` [Example 567, 4-{6-(3,4-difluorophenoxy)-8-[(tetrahydro-2H-pyran-4-ylmethyl)amino]imidazo[1,2-b]pyridazin-3-yl}-N,2-dimethylbenzamide]: the IC50 was below 1 nM.
For the compound `Cc1cc(-c2cnc3c(NCC4CCS(=O)(=O)CC4)cc(Oc4ccc(F)cc4)nn23)ccc1C(=O)NC1CC1` [Example 295A, N-cyclopropyl-4-[8-{[(1,1-dioxidotetrahydro-2H-thiopyran-4-yl)methyl]amino}-6-(4-fluorophenoxy)imidazo[1,2-b]pyridazin-3-yl]-2-methylbenzamide], the 50% inhibitory concentration (IC50) is 0.4 nM.
Then `Cc1cc(-c2cnc3c(NCC(C)(C)O)cc(Oc4cnn(C)c4)nn23)ccc1C(=O)NC1CC1` [Example 321, N-cyclopropyl-4-{8-[(2-hydroxy-2-methylpropyl)amino]-6-[(1-methyl-1H-pyrazol-4-yl)oxy]imidazo[1,2-b]pyridazin-3-yl}-2-methylbenzamide], with 0.6 nM; and `Cc1cc(-c2cnc3c(NCC(C)(C)O)cc(-c4ccoc4)nn23)ccc1C(=O)NC1CC1` [Example 157, N-cyclopropyl-4-{6-(furan-3-yl)-8-[(2-hydroxy-2-methylpropyl)amino]imidazo[1,2-b]pyridazin-3-yl}-2-methylbenzamide], with 12 nM; and `Cc1ccc(F)cc1Nc1cc(NCCCC(F)(F)F)c2ncc(-c3ccc(C(=O)NC4CC4)c(C)c3)n2n1` [Example 448, N-cyclopropyl-4-{6-[(5-fluoro-2-methylphenyl)amino]-8-[(4,4,4-trifluorobutyl)amino]imidazo[1,2-b]pyridazin-3-yl}-2-methylbenzamide], with 0.6 nM.
In the case of `CNC(=O)c1ccc(-c2cnc3c(NCC(C)C)cc(Cl)nn23)cc1Cl` [Example 180, 2-Chloro-4-{6-chloro-8-[(2-methylpropyl)amino]imidazo[1,2-b]pyridazin-3-yl}-N-methylbenzamide], the IC50 worked out at 327 nM.
For the compound `Cc1cc(-c2cnc3c(NCCC(F)(F)F)cc(Oc4cccc5ncccc45)nn23)ccc1C(=O)NC1CC1` [Example 170, N-cyclopropyl-2-methyl-4-{6-(quinolin-5-yloxy)-8-[(3,3,3-trifluoro-propyl)amino]imidazo[1,2-b]pyridazin-3-yl}benzamide], the IC50 turned out to be 0.7 nM.
Take `Cc1ccc(F)cc1Nc1cc(NCCC(F)(F)F)c2ncc(-c3ccc(C(=O)NC4CC4)c(C)c3)n2n1` [Example 375, N-cyclopropyl-4-{6-[(5-fluoro-2-methylphenyl)amino]-8-[(3,3,3-trifluoropropyl)amino]imidazo[1,2-b]pyridazin-3-yl}-2-methylbenzamide]: the IC50 worked out at 0.1 nM.
